From patent publication US10717749B2, “Macrocyclic sulfondiimine compounds” (BAYER PHARMA AKTIENGESELLSCHAFT, priority 2015, dated 2020)

Legend:
CDK9/CycT1 = biological target: T1, CDK9/CycT1 (Homo sapiens, UniProt P50750); assay: CDK9/CycT1 kinase assay (Method 1a, TR-FRET, 10 μM ATP); format: biochemical; conditions: for IC50: Method 1a, 10 μM ATP; for Selectivity CDK9 over CDK2: IC50 (CDK2)/IC50 (CDK9): Methods 1a and 2a, minimal values
T1 construct: Recombinant full-length His-tagged human CDK9 and CycT1; His; purchased Invitrogen PV4131; host or cells: insect cells
Description: 1a. CDK9/CycT1 Kinase Assay:
CDK9/CycT1-inhibitory activity of compounds of the present invention was quantified employing the CDK9/CycT1 TR-FRET assay as described in the following paragraphs:
Recombinant full-length His-tagged human CDK9 and CycT1, expressed in insect cells and purified by Ni-NTA affinity chromatography, were purchased from Invitrogen (Cat. No PV4131). As substrate for the kinase reaction biotinylated peptide biotin-Ttds-YISPLKSPYKISEG (C-terminus in amid form) was used which can be purchased e.g. from the company JERINI Peptide Technologies (Berlin, Germany). For the assay 50 nl of a 100 fold concentrated solution of the test compound in DMSO was pipetted into a black low volume 384 well microtiter plate (Greiner Bio-One, Frickenhausen, Germany), 2 μl of a solution of CDK9/CycT1 in aqueous assay buffer [50 mM Tris/HCl pH 8.0, 10 mM MgCl2, 1.0 mM dithiothreitol, 0.1 mM sodium ortho-vanadate, 0.01% (v/v) Nonidet-P40 (Sigma)] were added and the mixture was incubated for 15 min at 22° C. to allow pre-binding of the test compounds to the enzyme before the start of the kinase reaction. Then the kinase reaction was started by the addition of 3 μl of a solution of adenosine-tri-phosphate (ATP, […]=> final conc. in the 5 μl assay volume is 10 μM) and substrate (1.67 μM=> final conc. in the 5 μl assay volume is 1 μM) in assay buffer and the resulting mixture was incubated for a reaction time of 25 min at 22° C. The concentration of CDK9/CycT1 was adjusted depending of the activity of the enzyme lot and was chosen appropriate to have the assay in the linear range, typical concentrations were in the range of 1 μg/mL. The reaction was stopped by the addition of 5 μl of a solution of TR-FRET detection reagents (0.2 μM streptavidine-XL665 [Cisbio Bioassays, Codolet, France] and 1 nM anti-RB(pSer807/pSer811)-antibody from BD Pharmingen [#558389] and 1.2 nM LANCE EU-W1024 labeled anti-mouse IgG antibody [Perkin-Elmer, product no. AD0077]) in an aqueous EDTA-solution (100 mM EDTA, 0.2% (w/v) bovine serum albumin in 100 mM HEPES pH 7.5).
The resulting mixture was incubated 1 h at 22° C. to allow the formation of complex between the phosphorylated biotinylated peptide and the detection reagents. Subsequently the amount of phosphorylated substrate was evaluated by measurement of the resonance energy transfer from the Eu-chelate to the streptavidine-XL. Therefore, the fluorescence emissions at 620 nm and 665 nm after excitation at 350 nm was measured in a HTRF reader, e.g. a Rubystar (BMG Labtechnologies, Offenburg, Germany) or a Viewlux (Perkin-Elmer). The ratio of the emissions at 665 nm and at […] was taken as the measure for the amount of phosphorylated substrate. The data were normalised (enzyme reaction without inhibitor=0% inhibition, all other assay components but no enzyme=100% inhibition).

HeLa = assay: Proliferation assay, crystal violet; format: cell-based; conditions: Homo sapiens, 96 h, 4 days, read-out: Inhibition of HeLa cell proliferation IC50
Experimental: (§1) Cultivated tumour cells (HeLa, human cervical tumour cells, ATCC CCL-2; NCI—H460, human non-small cell lung carcinoma cells, ATCC HTB-177; DU 145, hormone-independent human prostate carcinoma cells, ATCC HTB-81; HeLa-MaTu-ADR, multidrug-resistant human cervical carcinoma cells, EPO-GmbH Berlin; Caco-2, human colorectal carcinoma cells, ATCC HTB-37; B16F10, mouse melanoma cells, ATCC CRL-6475) were plated at a density of 3,500 cells/well (DU145), 3,000 cells/well (HeLa-MaTu-ADR), 1,500 cells/well (NCI—H460), 3,000 cells/well (HeLa), 2,000 cells/well (Caco-2), or 1,000 cells/well (B16F10) in a 96-well multititer plate in 150 μL of their respective growth medium supplemented 10% fetal calf serum. After 24 hours, the cells of one plate (zero-point plate) were stained with crystal violet (see below), the test substances were added in various concentrations (0 μM, as well as in the range of 0.0001-10 μM) employing HP Dispenser. The cells were incubated for 4 days in the presence of test substances. Cell proliferation was determined by staining the cells with crystal violet: the cells were fixed by adding 20 μl/measuring point of an 11% glutaric aldehyde solution for 15 minutes at room temperature. After three washing cycles of the fixed cells with water, the plates were dried at room temperature. The cells were stained by adding 100 μl/measuring point of a 0.1% crystal violet solution DU 145, Caco-2, HeLa (pH 4.5) B16F10, NCI—H460, HeLa-MaTu-ADR. After three washing cycles of the stained cells with water, the plates were dried at room temperature. The dye was dissolved by adding 100 μl per measuring point of a 10% acetic acid solution. The extinction was determined by photometry at a wavelength of 595/550/620 nm depending on the intensity of coloration, usually at 595 nm. The change of cell number, in percent, was calculated by normalization of the measured values to the extinction values of the zero-point plate (=0%) and the extinction of the untreated (0 μM) cells (=100%). The IC50 values (inhibitory concentration at 50% of maximal effect) were determined by means of a 4 parameter fit.

DU145 = assay: Proliferation assay, crystal violet; format: cell-based; conditions: Homo sapiens, DU-145, 96 h; DU145, 4 days; read-out: Inhibition of DU145 cell proliferation IC50
Experimental: as §1

Caco-2 = assay: Proliferation assay, crystal violet; format: cell-based; conditions: Homo sapiens, 96 h; Caco-2, 4 days; read-out: Inhibition of Caco-2 cell proliferation IC50
Experimental: as §1

B16F10 = assay: Proliferation assay, crystal violet; format: cell-based; conditions: Mus musculus, B16-F10, 96 h; B16F10, 4 days; read-out: Inhibition of B16F10 cell proliferation IC50
Experimental: as §1

NCI-H460 = assay: Proliferation assay, crystal violet; format: cell-based; conditions: Homo sapiens, 96 h; NCI-H460, 4 days; read-out: Inhibition of NCI-H460 cell proliferation IC50
Experimental: as §1

T1 sequence (P50750 whole entry): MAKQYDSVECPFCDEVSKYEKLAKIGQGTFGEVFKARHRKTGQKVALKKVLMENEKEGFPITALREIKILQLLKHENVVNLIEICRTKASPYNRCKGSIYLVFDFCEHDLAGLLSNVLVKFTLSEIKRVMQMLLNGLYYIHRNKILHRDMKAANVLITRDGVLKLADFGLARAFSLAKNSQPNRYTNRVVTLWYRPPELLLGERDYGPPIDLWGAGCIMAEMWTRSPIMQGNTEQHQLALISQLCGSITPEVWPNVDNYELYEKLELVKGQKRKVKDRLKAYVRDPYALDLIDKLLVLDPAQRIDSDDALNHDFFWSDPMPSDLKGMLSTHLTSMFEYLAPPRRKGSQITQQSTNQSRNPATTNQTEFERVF
T1 sequence (O60563 whole entry partner): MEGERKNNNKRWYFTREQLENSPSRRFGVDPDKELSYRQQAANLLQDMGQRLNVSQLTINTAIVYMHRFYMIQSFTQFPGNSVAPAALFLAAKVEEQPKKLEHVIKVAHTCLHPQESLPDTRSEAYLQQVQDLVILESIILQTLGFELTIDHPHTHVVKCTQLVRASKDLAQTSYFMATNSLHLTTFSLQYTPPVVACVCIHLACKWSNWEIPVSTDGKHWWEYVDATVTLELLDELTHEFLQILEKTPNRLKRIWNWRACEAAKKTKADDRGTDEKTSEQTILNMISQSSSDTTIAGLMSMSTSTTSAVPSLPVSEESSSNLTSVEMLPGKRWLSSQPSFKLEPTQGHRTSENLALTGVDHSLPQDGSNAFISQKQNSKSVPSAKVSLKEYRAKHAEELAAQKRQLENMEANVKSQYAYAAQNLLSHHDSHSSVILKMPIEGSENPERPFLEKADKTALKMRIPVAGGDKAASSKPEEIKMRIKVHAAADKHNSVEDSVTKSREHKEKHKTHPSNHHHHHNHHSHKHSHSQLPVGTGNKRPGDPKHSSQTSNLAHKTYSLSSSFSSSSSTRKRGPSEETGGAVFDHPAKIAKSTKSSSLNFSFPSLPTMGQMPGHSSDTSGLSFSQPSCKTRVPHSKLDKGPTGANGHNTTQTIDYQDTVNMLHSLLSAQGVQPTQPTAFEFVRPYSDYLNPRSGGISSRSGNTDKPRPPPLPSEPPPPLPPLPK

Row | SMILES | IC50 (CDK9/CycT1) | Selectivity CDK9 over CDK2: IC50 (CDK2)/IC50 (CDK9) (CDK9/CycT1) | IC50 (HeLa) | IC50 (DU145) | IC50 (Caco-2) | IC50 (B16F10) | IC50 (NCI-H460)
1 | CS(=N)(=N)Cc1cc2cc(c1)OCCCCOc1c(ccc(F)c1F)-c1nc(ncc1F)N2 [Example 6, 16,20,21-trifluoro-9-[(S-methylsulfonodiimidoyl)methyl]-2,3,4,5-tetrahydro-12H-13,17-(azeno)-11,7-(metheno)-1,6,12,14-benzodioxadiazacyclononadecine] | 8.2 nM | 174 | 313 nM | 360 nM | 325 nM | 683 nM | 369 nM
2 | CN=S(C)(=N)Cc1cc2nc(c1)OCCCOc1cc(F)ccc1-c1cc(ncc1F)N2 (racemic) [Example 4, (rac)-8-[(N,S-dimethylsulfonodiimidoyl)methyl]-15,19-difluoro-3,4-dihydro-2H,11H-10,6-(azeno)-12,16-(metheno)-1,5,11,13-benzodioxadiazacyclooctadecine] | 9.2 nM | 4.1 | – | – | – | – | –
3 | CS(=N)(=N)Cc1cc2nc(c1C#N)OCCCOc1cc(F)ccc1-c1cc(ncc1F)N2 [Example 8, 15,19-difluoro-8-[(S-methylsulfonodiimidoyl)methyl]-3,4-dihydro-2H,11H-10,6-(azeno)-12,16-(metheno)-1,5,11,13-benzodioxadiazacyclooctadecine-7-carbonitrile] | 3.7 nM | 19.2 | 5.5 nM | 11.2 nM | 43.1 nM | 50.7 nM | –
4 | CS(=N)(=N)Cc1cc2nc(c1)OCCCOc1cc(F)ccc1-c1cc(ncc1F)N2 [Example 1, 15,19-difluoro-8-[(S-methylsulfonodiimidoyl)methyl]-3,4-dihydro-2H,11H-10,6-(azeno)-12,16-(metheno)-1,5,11,13-benzodioxadiazacyclooctadecine] | 3.3 nM | 5.0 | 2.8 nM | 9.1 nM | 16.4 nM | 14.3 nM | 10.4 nM
5 | CS(=N)(=N)Cc1cc2cc(c1)OCCCCOc1cc(F)ccc1-c1nc(ncc1F)N2 [Example 5, 16,20-difluoro-9-[(S-methylsulfonodiimidoyl)methyl]-2,3,4,5-tetrahydro-12H-13,17-(azeno)-11,7-(metheno)-1,6,12,14-benzodioxadiazacyclononadecine] | 3.4 nM | 27.2 | 25.8 nM | 36.2 nM | 35.2 nM | 50.6 nM | 38.3 nM
6 | CS(=N)(Cc1cc2cc(c1)OCCCCOc1cc(F)ccc1-c1nc(ncc1F)N2)=NC1CC1 (racemic) [Example 9, (rac)-9-[(N-cyclopropyl-S-methylsulfonodiimidoyl)methyl]-16,20-difluoro-2,3,4,5-tetrahydro-12H-13,17-(azeno)-11,7-(metheno)-1,6,12,14-benzodioxadiazacyclononadecine] | 3.6 nM | 39.7 | 31.6 nM | 118 nM | 47.8 nM | 92.2 nM | 56 nM
7 | CS(=N)(=N)Cc1cc2cc(c1)OCCCCOc1c(F)cccc1-c1nc(ncc1F)N2 [Example 7, 16,21-difluoro-9-[(S-methylsulfonodiimidoyl)methyl]-2,3,4,5-tetrahydro-12H-13,17-(azeno)-11,7-(metheno)-1,6,12,14-benzodioxadiazacyclononadecine] | 5.6 nM | 209 | 332 nM | 396 nM | 396 nM | 784 nM | 448 nM
8 | CS(=N)(Cc1cc2nc(c1)OCCCOc1cc(F)ccc1-c1cc(ncc1F)N2)=NC#N (racemic) [Example 3, (rac)-[{[15,19-difluoro-3,4-dihydro-2H,11H-10,6-(azeno)-12,16-(metheno)-1,5,11,13-benzodioxadiazacyclooctadecin-8-yl]methyl}(imino)methyl-λ^6-sulfanylidene]cyanamide] | 2.9 nM | 2.1 | – | – | – | – | –
9 | CS(=N)(Cc1cc2nc(c1)OCCCOc1cc(F)ccc1-c1cc(ncc1F)N2)=NCCCO (racemic) [Example 2, (rac)-3-(2-{[15,19-difluoro-3,4-dihydro-2H,11H-10,6-(azeno)-12,16-(metheno)-1,5,11,13-benzodioxadiazacyclooctadecin-8-yl]methyl}-2-methyl-2λ^6-diazathia-1,2-dien-1-yl)propan-1-ol] | 2.9 nM | 7.8 | 10.2 nM | 29.5 nM | 28.7 nM | 37.4 nM | 89.8 nM
